Assay results as given in patent publication US9155751B2, “Solution for tissue adhesion prevention and method for tissue adhesion prevention” (THE UNIVERSITY OF TOKYO, priority 2005, dated 2015).
Values joined by “and” are separate entries in the source; they are usually repeats but may differ in a detail not shown here. Equal values may be shown once. “Also recorded” adds a separate entry of the source.

How the values were obtained:
[1] = test system: HepG2 cells; assay: HepG2 cell survival after air-dry (neutral red absorbance); type: cell-based, human; conditions: for cell survival rate: activated with sample solution 37 degrees C 1 hour, air-dry 3 minutes, control plate without air-dry = 100%; for cell survival rate in control plates (effect of each reagent on cells): air-dry not performed, control plate for PBS (+) = 100%; for cell protection effect: plates air-dried for 3 minutes
Method: As cells, HepG2 cells (human hepatoma-derived cell lines) were used.
For all reagents other than HepG2 cells, AA-2G, trehalose, DMEM media, FCS, neutral red, reagent grade chemicals were used. In addition, as sample solution in which HepG2 cells were activated, 4 kinds of solution; PBS (+) solution, 2.5 mM AA-2G solution, 132 mM trehalose solution, 2.5 mM AA-2G+132 mM trehalose mixed solution were prepared.
A reagent ascorbic acid-2-glucoside (AA2G; Hayashihara Biochemical Labs., Inc.) was dissolved in distilled water to obtain 2.5 mM AA-2G solution. And a highly purified hydrated crystal trehalose in powder (Reagent trehalose; Hayashihara Biochemical Labs., Inc.) was dissolved in distilled water to obtain 132 mM trehalose solution. The reagents ascorbic acid-2-glucoside and the highly purified hydrated crystal trehalose in powder were dissolved in distilled water to obtain 2.5 mM AA-2G+132 mM trehalose mixed solution. Then, pH and osmolarity of these 4 kinds of sample solutions were adjusted. Adjustment of osmolarity of 2.5 mM AA-2G solution, 132 mM trehalose solution, 2.5 mM AA-2G+132 mM trehalose mixed solution was performed by adjusting with sodium chloride of PBS (+) to be isotonic.
The pH and osmolarity of each sample after adjustment were as follows; pH 7.2 and 279 mOsm for PBS (+) solution, pH 6.8 and 265 mOsm for 2.5 mM AA-2G solution, pH 7.2 and 283 mOsm for 132 mM trehalose solution and pH 7.0 and 282 mOsm for 2.5 mM AA-2G+132 mM trehalose mixed solution.
Then, HepG2 cells were seeded with 4×10^4 cells/well each to four 12-well plates, and incubated in DMEM media (Nissui Pharmaceutical Co., Ltd) containing 10% FCS (Gibco) for 4 days. Then the DMEM media containing 10% FCS were replaced with 4 kinds of sample solutions; PBS (+) solution, 2.5 mM AA-2G solution, 132 mM trehalose solution, 2.5 mM AA-2G+132 mM trehalose mixed solution, and activated at 37 degrees C. for 1 hour.
Two control plates and two test plates were prepared for cells activated with 4 kinds of sample solutions, respectively. For each two test plates, one plate was air-dried for 5 minutes and other plate was air-dried for 3 minutes. The two control plates were not air-dried.
Then, cells of each plate was replaced with no serum DMEM media and incubated at 37 degrees C. for 1 hour. After replacing with 0.02% neutral red (Wako Pure Chemical Industries, Ltd, hereinafter referred to NR), they were activated at 37 degrees C. for 40 minutes. After removal of NR solution and addition of PBS (+), they were left to stand at 37 degrees C. for 40 minutes, PBS (+) was removed and they were air-dried for 5 minutes. They were added NR extracts and left to stand at 37 degrees C. for 10 minutes, then each sample was distributed over 96-well plate and the absorbance at the wavelength of 570 nm was measured.
The absorbance of the control plates to which air-dry was not performed was considered as cell survival rate of 100%, and the cell survival rate of the test plates to which air-dry was performed for 3 minutes was calculated. The results are shown in the graph indicating changes in cell survival rate by air-dry in FIG. 1.
Also, the cell survival rates of control plates for each sample solution to which air-dry was not performed were calculated. The results are shown in the graph indicating the effect of each reagent on cells in FIG. 2.

[2] = test system: abdominal adhesion model using rabbits; assay: Rabbit abdominal adhesion model by desiccating intestine surface during abdominal surgery (Example 3); type: in vivo, New Zealand White rabbits; set-up: key to Adhesion sites: greater omentum - rectum / Adhesion sites: greater omentum - stomach / Adhesion sites: greater omentum - small intestine / Adhesion sites: small intestine - rectum / Adhesion sites: abdominal wall - bladder / Adhesion sites: abdominal wall - fat / Adhesion sites: colon-fat / Adhesion sites: jejunum - abdominal wall / Adhesion sites: cecum - colon: non-adhesion: −; Adhesions of mild degree (abruption enabled): +; Adhesions of severe degree (abruption enabled): ++; Score-Total: scale not given here
Method: In this example, abdominal adhesion model was prepared using rabbits by desiccating surface of intestines during abdominal surgery, and the preventive effect on intestine adhesion by trehalose was discussed.
As trehalose, powder trehalose (Reagent trehalose; Hayashihara Biochemical Labs., Inc.) were dissolved in sterile distilled water of 250 mL as 7% solution, sterilized by filtration with filter (Millex; Millpore Co., Bed ford) and poured to sterile container and stored at room temperature.
(§1) As test animals, 20 female New Zealand White rabbits weighing 2.6 to 3.2 kg aged of 14 weeks (Std:NZW, Japan SLC, Inc., Shizuoka) were used. The rabbits were kept in animal laboratory (room temperature of 24+/−1 degrees C., humidity of 30 to 70%) in The University of Tokyo, Graduate School of Agricultural and Life Sciences Veterinary Medical Center. The rabbits were acclimatized for 1 week after purchase, and during this period blood test (complete blood count, BUN, Cre, ALT, ALP) and general x-ray test were performed to confirm that abnormality was not present. The experiment of this example was performed according to the Manual of animal experiment of The University of Tokyo.
(§2) The experiment of this example was performed as follows.
(§3) As anesthesia, 5 mg/kg of ketamine (KETALAL 50; Sankyo Lifetech Co., Ltd., Tokyo) and 0.1 mg/kg of medetomidine (DOMITOL; Meiji Seiyaku Ca, Ltd., Tokyo) were intramuscularly injected as preoperative medication, and after intubation maintained with isoflurane (SOFLU Dainippon Pharmaceutical Co., Ltd., Osaka). Before operation, 10 mg/kg of enrofloxacin (BAYTRIL; Bayer Medical Ltd., Tokyo) was subcutaneously administered as antibiotics, and during operation 10 mL/kg/hr of lactated Ringer's solution (FUSO; Fuso Pharmaceutical Industries, Ltd., Osaka) was intravenously administered. After operation, single dose of 20 μg/kg of buprenorphine (LEPETAN; Otsuka Pharmaceutical Co., Ltd., Tokyo) as analgesics was subcutaneously administered.
During anesthesia, ECG, ETCO2 and SpO2 were monitored and maintained within their normal variations.
For the 20 rabbits, after disinfection of operative field, abdominal median incision was performed and intestines were exposed as far as possible and serum was wiped with gauze. Total ovariohysterectomy performed according to given method. Four section of ovarion arteries and veins were severed after being ligated with 4-0 mono filament polyglyconate suture (MAXON; Syneture Co., Ltd., Connecticut). Also, uterovaginal stump were sutured with 5-0 mono filament polyglyconate suture (MAXON; Syneture Co., Ltd., Connecticut), the 3-0 mono filament polyglyconate suture (MAXON; Syneture CO., Ltd., Connecticut) was used for closure of abdominal wall, and the 4-0 mono filament polyglyconate suture (MAXON; Syneture Co., Ltd., Connecticut) was used for subcutaneous tissues and stapler (ManiplerAZ-35W; Mani Inc., Tochigi) was used for skin suture.
Ten rabbits among the twenty rabbits were randomized to the control group, and the other ten rabbits were classified into the trehalose group.
The control group (10 rabbits) was left desiccated. The time period of laparotomy was 60 minutes.
For the trehalose group, trehalose solution was sprayed over the whole abdominal cavities every 15 minutes (0 minutes, 15 minutes, 30 minutes, 45 minutes, 60 minutes after starting the operation). The time period of laparotomy was 60 minutes. After operation, general condition and wounds were observed and rabbits were euthanized by excessive administration of pentobarbital two weeks after the operations.
The adhesion status in peritoneal cavity was macroscopically observed and recorded as well as tissues of adhesion sites were removed as pathohistological test materials and fixed in formalin. The clinical findings after 2 weeks and the macroscopic findings of adhesion status after laparotomy of each case are shown in Table 2.

[3] = test system: abdominal adhesion model using rabbits; assay: Rabbit abdominal adhesion model by desiccating intestine surface during abdominal surgery (Example 2); type: in vivo, New Zealand White rabbits; conditions: for Clinical findings: 2% trehalose solution sprayed on whole intestines several times during laparotomy
Method: In this example, abdominal adhesion model was prepared using rabbits by desiccating surface of intestines during abdominal surgery, and the preventive effect of intestine adhesion by trehalose was discussed.
as §1, with “As trehalose, powder trehalose (Reagent trehalose; Hayashihara Biochemical Labs., Inc.) and ^+NaCl were dissolved in sterile distilled water of 250 mL as 2%; solution, sterilized by filtration with filter (Millex; Millpore Co., Bedford) and poured to sterile container and stored at room temperature. As” for “As”, “five” for “20”, “2.85” for “2.6”, “[…])” for “70%)”, “of” for “of The”
as §2
as §3, with “Seiyaku Co.,” for “Seiyaku Ca,”, “isoflurane (ISOFLU;” for “isoflurane (SOFLU”, “intravenously administered,” for “intravenously administered.”, “administered. During anesthesia, ECG, ETCO2 and SpO2 were monitored and maintained within their normal variations.” for “administered.”
Three rabbits among the five rabbits were randomized to the control group, and the other two rabbits were classified into the trehalose group. For the five rabbits, after disinfection of operative field, abdominal median incision was performed and intestines were exposed as far as possible and serum was wiped with gauze. For control group (three rabbits) they were left desiccated and for trehalose group (two rabbits) whole intestines were sprayed with trehalose for several times. During this period, ovariohysterectomy was performed according to given method. The time period of laparotomy was 30 to 60 minutes for both groups. The 3-0 monofilament nylon fiber (Bear surgical suture; Bear Medic Corporation, Chiba) was used for ovariohysterectomy and closure of abdominal wall, and the 4-0 monofilament polyglyconate fiber (MAXON; Syneture Co., Ltd., Connecticut) was used for subcutaneous tissues and stapler (Manipler AZ-35W; Mani Inc., Tochigi) was used for skin suture. After operation, general condition and wounds were observed and they were killed by overdose of pentobarbital after 2 weeks. The adhesion status in peritoneal cavity was macroscopically observed and recorded as well as tissues of adhesion sites were removed as pathohistological test material and fixed in formalin.
The clinical findings after 2 weeks and the macroscopic findings of adhesion status after laparotomy of each case are shown in Table 1.

[4] = 7% trehalose solution sprayed every 15 minutes, 60 min laparotomy, 2 weeks after, individual rabbits No. 1-10
[5] = 2% trehalose solution sprayed on whole intestines, macroscopic, 2 weeks after operation, individual rabbits

O=C1O[C@H]([C@@H](O)CO)C(O)=C1O[C@H]1O[C@H](CO)[C@@H](O)[C@H](O)[C@H]1O [2.5 mM AA-2G solution, ascorbic acid-2-glucoside]
cell survival rate [1]: 61.8%
cell survival rate in control plates (effect of each reagent on cells) [1]: 101.6% and 101.5%
cell protection effect [1]: the cell protection effect was not observed

OC[C@H]1O[C@H](O[C@H]2O[C@H](CO)[C@@H](O)[C@H](O)[C@H]2O)[C@H](O)[C@@H](O)[C@@H]1O [Trehalose, trehalose]
cell survival rate [1]: 70.7%
cell survival rate in control plates (effect of each reagent on cells) ([1]; listed as 132 mM trehalose solution): 97.6% and 97.7%
cell protection effect [1]: the cell protection effect was observed
cases with adhesions of mild and severe degree between abdominal organs ([2]; 7% trehalose solution spray, 10 rabbits, control 6 of 10): 2 of 10
adhesion scores between organs (group) ([2]; 7% trehalose solution spray, 10 rabbits, control group +16): +3
Adhesion sites: abdominal wall - bladder [2, 4]: −
Adhesion sites: abdominal wall - fat [2, 4]: −
Adhesion sites: cecum - colon [2, 4]: + and − (9×)
Adhesion sites: colon-fat [2, 4]: −
Adhesion sites: greater omentum - rectum [2, 4]: −
Adhesion sites: greater omentum - small intestine [2, 4]: −
Adhesion sites: greater omentum - stomach [2, 4]: −
Adhesion sites: jejunum - abdominal wall [2, 4]: −
Adhesion sites: small intestine - rectum [2, 4]: − (9×) and ++
Score-Total ([2]; adhesion score per rabbit, 7% trehalose solution spray, individual rabbits No. 1-10): 1 and 0 (8×) and 2
prevention of abdominal adhesion due to desiccation (conclusion) ([2]; spray of 7% trehalose solution): can obviously prevent and reduce adhesions
prevention ratio ([2]; trehalose group versus control group adhesion score, Wilcoxon rank-sum test p<0.05): 81%
Clinical findings ([3]; 2 weeks after operation, individual rabbits): Partial dehiscence; also recorded: No abnormal findings
Clinical findings ([3]; 2 weeks after operation, individual rabbits, listed as trehalose): a part of skin suture site was removed and showed ulcer in 1 case
Findings after laparotomy: Adhesion of stump of uterus [3, 5]: Present
Findings after laparotomy: Adhesion sites in intestines [3, 5]: 2 sites of adhesion and No significant
Findings after laparotomy: Adhesion sites in intestines ([3]; 2% trehalose solution sprayed on whole intestines, macroscopic, 2 weeks after operation, individual rabbits, listed as trehalose): 2 sites of mild adhesion were suspected in 1 rabbit and no significant adhesion was macroscopically observed
prevention of abdominal adhesion due to desiccation (conclusion) ([3]; spray of 2% trehalose solution): would be effective for prevention of abdominal adhesion due to desiccation
